Source: article PMC4583475, “Receptor Polymorphism and Genomic Structure Interact to Shape Bitter Taste Perception” (PLoS Genetics, 2015)

What was measured:
[1] = tested on: bitter taste perception of 48 Caucasian subjects; test: Human psychophysical bitter taste tests (4-AFC recognition thresholds, gLMS intensity ratings); format: in vivo; conditions: for recognition threshold, fold range across subjects: 48 human subjects; for concentration perceived as strongly bitter, fold range across subjects / concentration perceived as strongly bitter, mode: gLMS strong intensity; for concentration perceived as weakly bitter, fold range across subjects / concentration perceived as weakly bitter, mode: gLMS weak intensity
Method: All were pre-screened to avoid inclusion of individuals with health problems and overt taste pathologies; pregnant and breast-feeding women were also excluded. Each subject participated in the entire course of the study, which included one training session and nine experimental sessions. Visits consisted of DNA collection and psychophysical tests for genotyping and phenotypic analyses, respectively. General taste abilities were also assessed for the bitter, salty, sour, and sweet taste during the first session.
Experiments were conducted at the sensory analysis laboratory of the German Institute of Human Nutrition Potsdam-Rehbruecke, according to good practice guidelines. […] Perceived bitter taste intensities were rated on the general Labelled Magnitude Scale (gLMS; [72–74]). […] For each 4-AFC test, four coded samples containing 10 ml solution were presented simultaneously; one containing the bitter tastant diluted in mineral water (Evian; Danone, Paris, France) and three containing mineral water only. At each concentration, subjects were challenged to identify the different sample, specify whether the quoted sample tasted bitter, and rate the perceived bitter intensity. Tests were performed with nose clips and oral rinsing, with a 45 s pause between concentrations. Training sessions were first used to familiarize subjects with the experimental procedures, and secondly, to assess general taste abilities. Concentration series consisted of geometric sequences of […], with a 1.5 common ratio and the following concentration ranges: 3.5x10^-5–2.0x10^-3M, 6.9x10^-4–4.0x10^-2 M, 2.6x10^-4–1.5x10^-2 M, 6.9x10^-4–4.0x10^-2 M, for salicin, sodium chloride, citric acid, and sucrose used as reference tastants for bitter, salty, sour, and sweet taste, respectively. Following training, subjects tested each tastant in triplicate over nine sessions. Latin square designs extended for first-order carry-over effects were used to counterbalance presentation order of the test compounds over the test sessions, across subjects and for each test compound, as well as presentation order of the samples at each concentration across both repetitions and subjects. Sensory sessions were monitored and data automatically collected (Fizz; Biosystèmes, Couternon, France).
Detection and recognition probabilities of the bitter samples were analysed per repetition and subject. Relationships between probabilities (detection or recognition probabilities) and concentrations were fitted by a logistic regression model using the maximum-likelihood method. Threshold value and slope of the logistic curves were then obtained per repetition and subject, using a self-implemented toolbox (Matlab; The MathWorks Inc.). […] Where required, outliers were discarded according to the Peirce’s criterion. Perceived intensities, expressed in percentage of the scale length, were analysed similarly.

[2] = tested on: TAS2R30-H1; test: Calcium imaging in HEK 293T Gα16gust44 cells transfected with TAS2R30-H1; format: cell-based, human
From the text: (§1) Allelic responses to agonists were quantified using in vitro heterologous expression assays designed in previous studies of TAS2R receptor function, which successfully mimic responses in vivo with respect to both magnitude and concentration range [17, 23, 25, 26, 46]. DNA fragments containing TAS2R coding sequences were first amplified from genomic DNA by PCR using a proofreading polymerase (PfuUltra II Fusion HotStart DNA Polymerase; Agilent Technologies, Santa Clara, CA, USA) and cloned into a plasmid vector according to the manufacturer’s protocol (Zero Blunt TOPO PCR Cloning Kit; Life Technologies). A second PCR was performed using specific cloning primers to facilitate subcloning into the expression vector, which was then modified to add an N-terminal signal for cell surface localisation and a C-terminal epitope for immunocytochemical detection to the receptor sequence (Fast Link DNA Ligation Kit; Epicentre, Illumina Inc., Madison, WI, USA) (pcDNA5/FRT Mammalian Expression Vector; Life Technologies). Empty vector was used as a negative control.
(§2) Functional assays were carried out in HEK 293T cells stably expressing the G protein chimera Gα16gust44 and transiently transfected with TAS2R alleles subcloned into the expression vector [78]. Calcium imaging was performed using an automated fluorometric imaging plate reader by exposing transfected cells to test compounds dissolved in assay buffer or to assay buffer alone (FLIPR Tetra; Molecular Devices, LLC, Sunnyvale, CA, USA). Changes in cytosolic calcium levels were monitored by measuring fluorescence intensity of a calcium-sensitive dye previously added (Fluo-4 AM; Life Technologies). Six replicates were carried out for each bitter stimulus, on separate experimental days, with each replicate consisting of concentration series of each bitter tastant.
(§3) Prior to final analysis, fluorescence data from functional assays, expressed in relative fluorescence units (RFU), underwent three corrections. First, a correction calculated from baseline values was applied to compensate for well-to-well fluctuations. A second correction calculated from negative control values was applied to correct for receptor independent artefacts and signal drift. A third correction calculated from positive control values was applied to facilitate comparison of data obtained from different experimental days. Fluorescence ratios ((F-F0)/F0), obtained by subtracting the background fluorescence from fluorescence peak height and then dividing the difference by the background fluorescence, were then used for data analysis. Variance analyses were performed, followed by Bonferroni multiple comparisons tests (SPSS 20; IBM Corporation, Armonk, NY, USA). Threshold response values were then defined as the first concentration eliciting a significant activation of the receptor, with empty vector acting as a negative control. Finally, dose-response curves were fitted to the Hill equation by nonlinear regression in order to determine half maximal effective concentrations (EC50) and maximal amplitude (SigmaPlot; Systat Software Inc., Chicago, IL, USA).

[3] = tested on: TAS2R30-H2; test: Calcium imaging in HEK 293T Gα16gust44 cells transfected with TAS2R30-H2; format: cell-based, human
From the text: as §1, §2, §3

[4] = molecular target: T1, TAS2R46-H1 (Homo sapiens, UniProt P59540); test: Calcium imaging in HEK 293T Gα16gust44 cells transfected with TAS2R46-H1; format: cell-based; conditions: for threshold: first concentration eliciting significant receptor activation
T1 construct: N-terminal signal for cell surface localisation (N); expressed in transfected cells; host or cells: HEK 293T cells stably expressing the G protein chimera Gα16gust44
T1 sequence (P59540 1-309): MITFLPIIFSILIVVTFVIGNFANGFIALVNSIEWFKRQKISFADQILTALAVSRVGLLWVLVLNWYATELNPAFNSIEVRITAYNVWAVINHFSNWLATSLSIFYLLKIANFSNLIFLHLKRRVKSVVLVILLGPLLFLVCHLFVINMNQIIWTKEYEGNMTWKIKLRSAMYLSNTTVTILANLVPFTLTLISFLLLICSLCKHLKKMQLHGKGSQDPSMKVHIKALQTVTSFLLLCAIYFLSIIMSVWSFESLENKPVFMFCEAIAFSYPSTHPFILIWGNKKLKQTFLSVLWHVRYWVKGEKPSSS
From the text: as §1, §2, §3

[5] = molecular target: T2, TAS2R46-H2 (Homo sapiens, UniProt P59540); test: Calcium imaging in HEK 293T Gα16gust44 cells transfected with TAS2R46-H2; format: cell-based; conditions: TAS2R46-H2, truncated variant (premature stop codon)
T2 construct: TAS2R46-H2, a truncated, six-transmembrane variant of the receptor; N-terminal signal for cell surface localisation (N); expressed in transfected cells; host or cells: HEK 293T cells stably expressing the G protein chimera Gα16gust44
T2 sequence (P59540 1-249 limits assumed): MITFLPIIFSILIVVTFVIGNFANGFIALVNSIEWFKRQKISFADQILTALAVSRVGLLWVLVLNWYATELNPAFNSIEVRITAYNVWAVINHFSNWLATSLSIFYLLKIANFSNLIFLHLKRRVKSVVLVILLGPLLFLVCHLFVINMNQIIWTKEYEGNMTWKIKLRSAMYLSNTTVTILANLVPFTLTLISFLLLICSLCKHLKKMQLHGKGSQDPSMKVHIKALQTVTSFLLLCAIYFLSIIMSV
From the text: as §1, §2, §3

[6] = tested on: TAS2R46-H3; test: Calcium imaging in HEK 293T Gα16gust44 cells transfected with TAS2R46-H3; format: cell-based, human; conditions: for threshold: first concentration eliciting significant receptor activation
From the text: as §1, §2, §3

[7] = tested on: every known TAS2R in humans; design: method as in PMID 20022913; conditions: complete TAS2R family; cited from earlier work
[8] = tested on: TAS2R30, -31, -43, and -46; test: Calcium imaging functional assays, statements across TAS2R loci (variants not resolved); format: cell-based, human; conditions: TAS2R30 and -46 variants
From the text: as §1
as §2, with “Six replicates were carried out for each bitter stimulus, on separate experimental days, with each replicate consisting of concentration series of each bitter tastant.” left out
Prior to final analysis, fluorescence data from functional assays, expressed in relative fluorescence units (RFU), underwent three corrections. First, a correction calculated from baseline values was applied to compensate for well-to-well fluctuations. A second correction calculated from negative control values was applied to correct for receptor independent artefacts and signal drift. […]

[9] = tested on: TAS2R43-H1; test: Calcium imaging in HEK 293T Gα16gust44 cells transfected with TAS2R43-H1; format: cell-based, human
From the text: as §1, §2
as §3, with “Threshold response values were then defined as the first concentration eliciting a significant activation of the receptor, with empty vector acting as a negative control. Finally, dose-response curves were fitted to the Hill equation by nonlinear regression in order to determine half maximal effective concentrations (EC50) and maximal amplitude (SigmaPlot; Systat Software Inc., Chicago, IL, USA).” left out

[10] = tested on: TAS2R43-H2; test: Calcium imaging in HEK 293T Gα16gust44 cells transfected with TAS2R43-H2; format: cell-based, human
From the text: as §1, §2
as §3, with “Threshold response values were then defined as the first concentration eliciting a significant activation of the receptor, with empty vector acting as a negative control. Finally, dose-response curves were fitted to the Hill equation by nonlinear regression in order to determine half maximal effective concentrations (EC50) and maximal amplitude (SigmaPlot; Systat Software Inc., Chicago, IL, USA).” left out

[11] = first concentration eliciting significant receptor activation

EC50 [4]	maximum amplitude [4]	threshold [4]	receptor variant response [5]	EC50 [6]	Structure (SMILES)	recognition threshold, fold range across subjects [1]	concentration perceived as strongly bitter, fold range across subjects [1]	concentration perceived as strongly bitter, mode [1]	concentration perceived as weakly bitter, fold range across subjects [1]	concentration perceived as weakly bitter, mode [1]	maximum amplitude [6]	threshold [6]	TAS2Rs responsive in published receptor-agonist inventory [7]	further results
11 µM	0.63 ΔF/F	3 µM	no response at any concentration	14 µM	CC1=C[C@H]2[C@H]3[C@H](C(C)=C4[C@H]5OC(=O)[C@@H](C)[C@@H]5CC[C@](C)(O)[C@@H]43)[C@@]13[C@@H]2[C@@](C)(O)CC[C@H]1[C@H](C)C(=O)O[C@@H]13 [absinthin]	40 fold	5 fold	1.3 µM	15 fold	0.39 µM	0.48 ΔF/F	10 µM	TAS2R30 and -46	EC50 [2]: 3.1 µM; maximum amplitude [2]: 0.41 ΔF/F; threshold [2, 11]: 300 nM; EC50 [3]: 1.3 µM; maximum amplitude [3]: 0.15 ΔF/F; threshold [3, 11]: 1000 nM
–	–	–	insensitive	–	CC(=O)O[C@@H]1C[C@]2(C)[C@H](CC[C@@H](O)[C@]2(C)O)[C@@](C=O)(C[C@@H](O)c2ccoc2)[C@@H]1C [cascarillin]	17 fold	–	–	11 fold	–	–	–	–	receptor variant response [2]: sensitive; receptor variant response [3]: insensitive; receptor variant response [4]: sensitive; receptor variant response [6]: intermediate; minimum concentration required to elicit response in functional assays [8]: 30 µM
5.6 µM	0.87 ΔF/F	1 µM	not activated at any concentration	7.6 µM	C=C1C(=O)O[C@H]2[C@H]1[C@@H](O)CC(=C)[C@@H]1CC(=O)[C@@H](C)[C@H]21 [grosheimin]	25 fold	5 fold	33 µM	17 fold	15 µM	0.50 ΔF/F	3 µM	only TAS2R43 and -46	EC50 [9]: 16 µM; maximum amplitude [9]: 0.60 ΔF/F; threshold [9, 11]: 10 µM; EC50 [10]: 6.9 µM; maximum amplitude [10]: 0.81 ΔF/F; threshold [10, 11]: 3 µM
